One experiment addresses T1, Gal-1 (galectin-1) (Homo sapiens, UniProt P09382).
T1 construct: gene LGALS1; ELISA by an established protocol of Elling and co-workers
As to the kind of experiment: ELISA-type inhibition of binding to asialofetuin. The note with it: read-out: Gal-1 IC50 ± SD [× 10^-6M]^a). From the text:
ELISA-type inhibition of binding to asialofetuin on Gal-1 (galectin-1)
On the technique in general: An ELISA detects its analyte on a solid surface through an enzyme-linked reagent.

In experiment [1] the target is T2, Gal-3 (galectin-3) (Homo sapiens, UniProt P17931).
T2 construct: gene LGALS3; ELISA by an established protocol of Elling and co-workers
T2 sequence (P17931 2-250): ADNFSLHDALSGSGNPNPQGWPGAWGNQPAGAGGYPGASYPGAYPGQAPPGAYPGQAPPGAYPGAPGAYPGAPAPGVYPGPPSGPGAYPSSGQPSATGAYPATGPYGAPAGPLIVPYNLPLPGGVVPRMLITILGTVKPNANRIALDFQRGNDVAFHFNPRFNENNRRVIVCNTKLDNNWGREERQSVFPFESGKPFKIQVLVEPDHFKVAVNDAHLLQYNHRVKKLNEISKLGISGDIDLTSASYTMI
The experiment can be described thus: ELISA-type inhibition of binding to asialofetuin. The note with it: read-out: Gal-3 IC50 ± SD [× 10^-6M]^a). From the text:
ELISA-type inhibition of binding to asialofetuin on Gal-3 (galectin-3)

The target in experiment [2] is T2, Gal-3 (galectin-3). As to the kind of experiment: ELISA-type inhibition and SPR inhibition. It is filed as biochemical. The note with it: glucose non-binding control; PBS pH 7.5.

Usually IC50 stands for the concentration that inhibits the measured activity by half.

T1 sequence (P09382 2-135): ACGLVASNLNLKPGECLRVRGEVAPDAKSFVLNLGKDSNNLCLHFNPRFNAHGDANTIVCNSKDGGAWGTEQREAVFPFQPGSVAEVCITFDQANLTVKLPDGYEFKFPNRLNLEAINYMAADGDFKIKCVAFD

In the case of `CC(=O)NCCOCCOCCNC(=O)CCC(=O)NCCN(CCNC(=O)CCC(N)=O)C(=O)CCc1cn([C@@H]2O[C@H](CO)[C@@H](O[C@@H]3O[C@H](CO)[C@H](O)[C@H](O)[C@H]3O)[C@H](O)[C@H]2O)nn1` [1b, Lac(1)-2-Ac], the IC50 was found to be 296 ± 70 µM at Gal-1 (galectin-1) and 123 ± 3 µM on Gal-3 (galectin-3) [1].
For `CC(=O)NCCOCCOCCNC(=O)CCC(=O)NCCN(CCNC(=O)CCC(=O)NCCN(CCNC(=O)CCC(=O)NCCN(CCNC(=O)CCC(=O)NCCN(CCNC(=O)CCC(=O)NCCN(CCNC(=O)CCC(N)=O)C(=O)CCc1cn(CCO[C@H]2O[C@H](CO)[C@@H](O)[C@H](O)[C@H]2O)nn1)C(=O)CCC(=O)NCc1ccccc1)C(=O)CCc1cn(CCO[C@H]2O[C@H](CO)[C@@H](O)[C@H](O)[C@H]2O)nn1)C(=O)CCC(=O)NCc1ccccc1)C(=O)CCc1cn(CCO[C@H]2O[C@H](CO)[C@@H](O)[C@H](O)[C@H]2O)nn1` [10b, Glc(1,3,5)-Bz(2,4)-6-Ac], at Gal-3 (galectin-3) [2], the no inhibition result was “nonbinding carbohydrate ligand (glucose, 9b-13b), we see no inhibition in both ELISA and SPR”.
On to `CC(=O)NCCOCCOCCNC(=O)CCC(=O)NCCN(CCNC(=O)CCC(=O)NCCN(CCNC(=O)CCC(=O)NCCN(CCNC(=O)CCC(=O)NCCN(CCNC(=O)CCC(=O)NCCN(CCNC(=O)CCC(N)=O)C(=O)CCc1cn(CCO[C@H]2O[C@H](CO)[C@@H](O)[C@H](O)[C@H]2O)nn1)C(=O)CCC(=O)Nc1ccc(N)cc1)C(=O)CCc1cn(CCO[C@H]2O[C@H](CO)[C@@H](O)[C@H](O)[C@H]2O)nn1)C(=O)CCC(=O)Nc1ccc(N)cc1)C(=O)CCc1cn(CCO[C@H]2O[C@H](CO)[C@@H](O)[C@H](O)[C@H]2O)nn1` [11b, Glc(1,3,5)-pNH2Ph(2,4)-6-Ac], for which the no inhibition result on Gal-3 (galectin-3) [2] is “nonbinding carbohydrate ligand (glucose, 9b-13b), we see no inhibition in both ELISA and SPR”.
Consider `CC(=O)NCCOCCOCCNC(=O)CCC(=O)NCCN(CCNC(=O)CCC(=O)NCCN(CCNC(=O)CCC(=O)NCCN(CCNC(=O)CCC(=O)NCCN(CCNC(=O)CCC(=O)NCCN(CCNC(=O)CCC(N)=O)C(=O)CCc1cn(CCO[C@H]2O[C@H](CO)[C@@H](O)[C@H](O)[C@H]2O)nn1)C(=O)CCC(=O)Nc1ccc(S(=O)(=O)O)cc1)C(=O)CCc1cn(CCO[C@H]2O[C@H](CO)[C@@H](O)[C@H](O)[C@H]2O)nn1)C(=O)CCC(=O)Nc1ccc(S(=O)(=O)O)cc1)C(=O)CCc1cn(CCO[C@H]2O[C@H](CO)[C@@H](O)[C@H](O)[C@H]2O)nn1` [12b, Glc(1,3,5)-pSO3H Ph(2,4)-6-Ac], for which the no inhibition result at Gal-3 (galectin-3) [2] is “nonbinding carbohydrate ligand (glucose, 9b-13b), we see no inhibition in both ELISA and SPR”.

The record behind these values is PMC9831253, “Sequence-Defined Heteromultivalent Precision Glycomacromolecules Bearing Sulfonated/Sulfated Nonglycosidic Moieties Preferentially Bind Galectin-3 and Delay Wound Healing of a Galectin-3 Positive Tumor Cell Line in an In Vitro Wound Scratch Assay” (Macromolecular bioscience, 2020).
